pIC50: −log10 of the molar value.
Test system: HEK293 cells
Test: HEK293 VLCFA-LPC IC50 determination (13C-labeled C26:0 LPC by UHPLC/MS)
Type: cell-based, human
Details: Homo sapiens, HEK293, 48 h, average of one or more replicates; 13C-labeled C26:0 LPC, 48 hours; read-out: Average HEK293 IC50
In short: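 Suspension HEK293 cells (final 0.5 million/mL after mixing with equal volume) incubated 48 hours with compound plus 13C-acetate (1.0 mg/mL in added media), shaking at 37° C. Lipids extracted with hexane/isopropanol or methanol, C13:0 LPC standard. UHPLC/MS of 13C-labeled C26:0 LPC (638.500/104.100 m/z); IC50 by four-parameter fit.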

| Structure (SMILES) | pIC50 |
| --- | --- |
| O=C(Nc1ccn(-c2ncc(F)cc2F)n1)C1(c2ccccc2F)CC1 [Compound 391, N-(1-(3,5-difluoropyridin-2-yl)-1H-pyrazol-3-yl)-1-(2-fluorophenyl)cyclopropane-1-carboxamide] | 6.72 |
| O=C(Nc1ccn(-c2ccc(Cl)cn2)n1)C1(c2ccccc2F)CC1 [Compound 398, N-(1-(5-chloropyridin-2-yl)-1H-pyrazol-3-yl)-1-(2-fluorophenyl)cyclopropane-1-carboxamide] | < 5.30 |
| Cc1cc(-n2ccc(NC(=O)C3(c4ccccc4F)CC3)n2)sn1 [Compound 401, 1-(2-fluorophenyl)-N-[1-(3-methylisothiazol-5-yl)pyrazol-3-yl]cyclopropanecarboxamide] | 5.64 |
| O=C(Nc1ccn(-c2ccsn2)n1)C1(c2ccccc2F)CC1 [Compound 402, 1-(2-fluorophenyl)-N-(1-isothiazol-3-ylpyrazol-3-yl)cyclopropanecarboxamide] | 7.22 |
| Cc1nn(C)cc1-n1ccc(NC(=O)C2(c3ccccc3F)CC2)n1 [Compound 403, N-[1-(1,3-dimethylpyrazol-4-yl)pyrazol-3-yl]-1-(2-fluorophenyl)cyclopropanecarboxamide] | < 5.30 |
| Cc1nnc(-n2ccc(NC(=O)C3(c4ccccc4F)CC3)n2)s1 [Compound 404, 1-(2-fluorophenyl)-N-[1-(5-methyl-1,3,4-thiadiazol-2-yl)pyrazol-3-yl]cyclopropanecarboxamide] | < 5.30 |
| O=C(Nc1ccn(-c2ncns2)n1)C1(c2ccccc2F)CC1 [Compound 406, 1-(2-fluorophenyl)-N-[1-(1,2,4-thiadiazol-5-yl)pyrazol-3-yl]cyclopropanecarboxamide] | 7.74 |

Same assay, conditions: Homo sapiens, HEK293, HEK293 cells; average of one or more replicates; read-out: Average HEK293 IC50

| Structure (SMILES) | pIC50 |
| --- | --- |
| COc1ccccc1C1(C(=O)Nc2ccn(-c3ccnc(F)c3)n2)CC1 [Compound 389, N-[1-(2-fluoro-4-pyridyl)pyrazol-3-yl]-1-(2-methoxyphenyl)cyclopropanecarboxamide] | < 5.30 |
| Cn1cnc(-n2ccc(NC(=O)C3(c4ccccc4F)CC3)n2)c1 [Compound 392, 1-(2-fluorophenyl)-N-(1-(1-methyl-1H-imidazol-4-yl)-1H-pyrazol-3-yl)cyclopropane-1-carboxamide] | < 5.30 |
| Nc1cc(-n2ccc(NC(=O)C3(c4ccccc4F)CC3)n2)ccn1 [Compound 393, N-[1-(2-amino-4-pyridyl)pyrazol-3-yl]-1-(2-fluorophenyl)cyclopropanecarboxamide] | 5.72 |
| CN(C)c1ccc(-n2ccc(NC(=O)C3(c4ccccc4F)CC3)n2)cn1 [Compound 394, N-[1-[6-(dimethylamino)-3-pyridyl]pyrazol-3-yl]-1-(2-fluorophenyl)cyclopropanecarboxamide] | < 5.30 |
| O=C(Nc1ccn(-c2ccnc(OC(F)F)c2)n1)C1(c2ccccc2F)CC1 [Compound 395, N-(1-(2-(difluoromethoxy)pyridin-4-yl)-1H-pyrazol-3-yl)-1-(2-fluorophenyl)cyclopropane-1-carboxamide] | < 5.30 |
| O=C(Nc1ccn(-c2ccnc(C(F)F)c2)n1)C1(c2ccccc2F)CC1 [Compound 396, N-[1-[2-(difluoromethyl)-4-pyridyl]pyrazol-3-yl]-1-(2-fluorophenyl)cyclopropanecarboxamide] | < 5.30 |
| O=C(Nc1ccn(-c2ccc(C(F)F)nc2)n1)C1(c2ccccc2F)CC1 [Compound 397, N-[1-[6-(difluoromethyl)-3-pyridyl]pyrazol-3-yl]-1-(2-fluorophenyl)cyclopropanecarboxamide] | < 5.30 |
| Nc1ncc(-n2ccc(NC(=O)C3(c4ccccc4F)CC3)n2)cc1F [Compound 399, N-[1-(6-amino-5-fluoro-3-pyridyl)pyrazol-3-yl]-1-(2-fluorophenyl)cyclopropanecarboxamide] | 6.55 |
| Cn1cc(-n2ccc(NC(=O)C3(c4ccccc4F)CC3)n2)nn1 [Compound 400, 1-(2-fluorophenyl)-N-(1-(1-methyl-1H-1,2,3-triazol-4-yl)-1H-pyrazol-3-yl)cyclopropane-1-carboxamide] | < 5.30 |

From patent US20180251431A1 (VERTEX PHARMACEUTICALS INCORPORATED, priority 2016, published 2018)
